From the PolyMetriX glass transition set
± gives the standard deviation of the reports.

SMILES	glass transition temperature [°C]
*C(=O)Nc1ccc(Oc2cccc(Oc3ccc(NC(=O)c4ccc5c(c4)C(=O)N(c4cccc(Oc6cccc(Oc7cccc(N8C(=O)c9ccc(*)cc9C8=O)c7)c6C#N)c4)C5=O)cc3)c2)cc1 (repeat unit)	207.00
*c1ccc(-c2ccc(-c3cc(-c4ccc(Oc5ccc(Oc6ccccc6)cc5)cc4)c4cc(-c5ccc6nc(*)cc(-c7ccc(Oc8ccc(Oc9ccccc9)cc8)cc7)c6c5)ccc4n3)cc2)cc1 (repeat unit)	355.00
*CC(*)c1c(C)cc(C)cc1C (repeat unit)	126.00
*c1ccc2oc(-c3cc(OCCCCCCCCCC)c(-c4nc5cc(C(*)(C(F)(F)F)C(F)(F)F)ccc5o4)cc3OCCCCCCCCCC)nc2c1 (repeat unit)	94.00
*CCCCCCCCCCCOC(=O)Nc1ccc(NC(=O)OCCCCCCCCCCCOc2ccc(-c3ccc(O*)cc3)cc2)c(C)c1 (repeat unit)	77.00
*CCC(CC)CC(C)CNC(=O)c1ccc(C(=O)N*)cc1 (repeat unit)	139.00
*CC(*)(C)C(=O)OCCCCCCOc1ccc(-c2ccc(C#N)cc2)cc1 (repeat unit)	63.00
*CC(*)C(=O)OCCCC (repeat unit) [Poly(tert-butyl acrylate)]	-51.58 ± 45
*CCOC(=O)C1C2C=CC(C2)C1C(=O)O* (repeat unit)	0.00
*CC(*)c1ccc(COCCC(F)(F)C(F)(F)C(F)(F)C(F)(F)F)cc1 (repeat unit)	13.00
*C(=O)OCCCCCCCCOC(=O)c1ccc(NC(=O)c2ccc(N3C(=O)c4ccc(*)cc4C3=O)cc2)cc1 (repeat unit)	105.00
*Oc1ccc(C(c2ccc(OC(*)=O)cc2)C(Cl)(Cl)Cl)cc1 (repeat unit)	230.00
*/C=C/CCCCCC* (repeat unit)	-78.00
*CCCCCCCCCCC(=O)NCCCCCC(=O)N* (repeat unit)	25.50
*CCN(*)C(=O)CCCCCCC (repeat unit)	10.00
*OC(=O)C(CCSC)NC(=O)CCCCC(=O)NC(CCSC)C(=O)OC1COC2C(*)COC12 (repeat unit)	71.00
*ON(C(F)(F)C(*)(F)F)C(F)(F)C(F)(F)Br (repeat unit)	-17.00
*c1ccc(-c2ccc(-c3cc(-c4ccccc4)c4cc5nc(*)cc(-c6ccccc6)c5cc4n3)cc2)cc1 (repeat unit)	383.00
*Oc1ccc(C(C)(C)c2ccc(OC(=O)c3cccc(Oc4cccc(C(*)=O)c4)c3)cc2)cc1 (repeat unit)	85.00
*c1ccc2c(c1)C(CCCCCCCC)(CCCCCCCC)c1cc(-c3ccc(*)c4nsnc34)ccc1-2 (repeat unit)	113.2 ± 1.8
*C(=O)c1ccc2c(c1)C(=O)N(c1ccc(Oc3ccc(C(c4ccc(Oc5ccc(N6C(=O)c7ccc(*)cc7C6=O)cc5C(F)(F)F)cc4)(C(F)(F)F)C(F)(F)F)cc3)c(C(F)(F)F)c1)C2=O (repeat unit)	220.00
*c1ccc(Oc2ccc(Oc3ccc(NC(=O)c4cccc(Oc5ccc6c(c5)C(=O)N(*)C6=O)c4)cc3)cc2)cc1 (repeat unit)	213.00
*CCOc1ccc(S(=O)(=O)c2ccc(OCCOP(=O)(O*)Oc3ccc(OC)cc3)cc2)cc1 (repeat unit)	52.00
*c1ccc(Oc2c(C)cc(Cc3cc(C)c(Oc4ccc(-n5c(=O)c6cc7c(=O)n(*)c(=O)c7cc6c5=O)cc4)c(C)c3)cc2C)cc1 (repeat unit)	299.50
*c1cccc(C(=O)Nc2ccc(Oc3ccc(NC(=O)c4cccc(N5C(=O)c6ccc(-c7ccc8c(c7)C(=O)N(*)C8=O)cc6C5=O)c4)cc3)cc2)c1 (repeat unit)	253.00
*C/C=C/C[Si](*)(C=C)C=C (repeat unit)	-65.00
